Key:
full-length ATR = target: T1, full-length ATR (Homo sapiens, UniProt Q13535); test: ATR Inhibition Assay (radioactive-phosphate incorporation); assay type: biochemical; details: Ki(app); 10 μM ATP, 5 nM full-length ATR, 25° C.
T1 construct: Assays were carried out at 25° C. in the presence of 5 nM full-length ATR
Experimental: Compounds were screened for their ability to inhibit ATR kinase using a radioactive-phosphate incorporation assay. Assays were carried out in a mixture of 50 mM Tris/HCl (pH 7.5), 10 mM MgCl2 and 1 mM DTT. Final substrate concentrations were 10 μM [γ-33P]ATP (3 mCi 33P ATP/mmol ATP, Perkin Elmer) and 800 μM target peptide (ASELPASQPQPFSAKKK (SEQ ID NO: 1)).
Assays were carried out at 25° C. in the presence of 5 nM full-length ATR. An assay stock buffer solution was prepared containing all of the reagents listed above, with the exception of ATP and the test compound of interest. 13.5 μL of the stock solution was placed in a 96 well plate followed by addition of 2 μL of DMSO stock containing serial dilutions of the test compound (typically starting from a final concentration of 15 μM with 3-fold serial dilutions) in duplicate (final DMSO concentration 7%). The plate was pre-incubated for 10 minutes at 25° C. and the reaction initiated by addition of 15 μL [γ-33P]ATP (final concentration 10 μM).
The reaction was stopped after […] by the addition of 30 μL 0.1M phosphoric acid containing 2 mM ATP. […]
After removing mean background values for all of the data points, Ki(app) data were calculated from non-linear regression analysis of the initial rate data using the Prism software package (GraphPad Prism version 3.0cx for Macintosh, GraphPad Software, San Diego Calif., USA). […]

[1] = tested on: HCT116 colorectal cancer cells; test: Cisplatin Sensitization Assay, 96 h cell viability (MTS); assay type: cell-based; details: concentration of compound required to reduce the IC50 of Cisplatin alone by at least 3-fold; HCT116, 96 h
Experimental: Compounds can be screened for their ability to sensitize HCT116 colorectal cancer cells to Cisplatin using a 96 h cell viability (MTS) assay. […] Compounds and Cisplatin are then both added simultaneously to the cell media in 2-fold serial dilutions from a top final concentration of 10 μM as a full matrix of concentrations in a final cell volume of 200 μl, and the cells are then incubated at 37° C. in 5% CO2. After 96 h, 40 μl of MTS reagent (Promega G358a) is added to each well and the cells are incubated for 1 h at 37° C. in 5% CO2. Finally, absorbance is measured at 490 nm using a SpectraMax Plus 384 reader (Molecular Devices) and the concentration of compound required to reduce the IC50 of Cisplatin alone by at least 3-fold (to 1 decimal place) can be reported.

[2] = Pharmacokinetics following intravenous dosing; details: in vivo
Experimental: Noncompartmental pharmacokinetic parameters were analyzed using Watson Bioanalytical LIMS (Version 7.4; Thermo Fisher Scientific) from either the blood or plasma samples. The following parameters were estimated following intravenous (IV) dosing; terminal elimination half-life (T1/2=ln(2)/λz, where λz is the first order rate constant associated with the terminal (log-linear) portion of the curve.
The area under the curve (AUClast=area under the curve from the time of dosing to the last measurable concentration). The area under the curve extrapolated to infinity (AUC0-∞=AUClast+Clast/λz). The clearance (Cl; Cl=DoseIV/AUC0-∞). The area under the first moment curve (AUMClast=area under the concentration times time versus time curve from the time of dosing to the last measurable concentration). The area under the first moment curve extrapolated to infinity (AUMC0-∞=AUMClast+Clast×t/λz+Clast/λz^2). The mean residence time (MRT=AUMC0-∞/AUC0-∞) and the steady state volume of distribution (Vdss=MRT×Cl) (see Table 2 below for data).
Clearance and volume of distribution can also be obtained using methods known to one of skill in the art (see e.g., Handbook of Essential Pharmacokinetics, Pharmacodynamics and Drug Metabolism for Industrial Scientists, Younggil Kwon, pp 18-28 (Non-compartmental Approach)).

[3] = tested on: HCT116 colorectal cancer cells; test: Single Agent HCT116 Activity, 96 h cell viability (MTS) assay; assay type: cell-based; details: Homo sapiens, HCT-116, read-out: Single agent HT116 IC50
Experimental: Compounds can be screened for single agent activity against HCT116 colorectal cancer cells using a 96 h cell viability (MTS) assay. HCT116 are plated at 470 cells per well in 96-well polystyrene plates (Costar 3596) in 150 μl of McCoy's 5A media (Sigma M8403) supplemented with 10% foetal bovine serum (JRH Biosciences 12003), Penicillin/Streptomycin solution diluted 1:100 (Sigma P7539), and 2 mM L-glumtamine (Sigma G7513), and allowed to adhere overnight at 37° C. in 5% CO2. Compounds are then added to the cell media in 2-fold serial dilutions from a top final concentration of 10 μM as a full matrix of concentrations in a final cell volume of 200 μl, and the cells are then incubated at 37° C. in 5% CO2. After 96 h, 40 μl of MTS reagent (Promega G358a) is added to each well and the cells are incubated for 1 h at 37° C. in 5% CO2. Finally, absorbance is measured at 490 nm using a SpectraMax Plus 384 reader (Molecular Devices) and IC50 values can be calculated (see Table 2 below for data).

intracellular ATR = target: T2, intracellular ATR (Homo sapiens, UniProt Q13535); test: Cellular ATR Inhibition Assay (phosphorylated H2AX immunofluorescence in hydroxyurea treated HT29 cells); assay type: cell-based; details: 2 mM hydroxyurea, phosphorylated H2AX Ser139
T2 construct: endogenous in cells; host or cells: HT29
T2 sequence (Q13535 whole entry): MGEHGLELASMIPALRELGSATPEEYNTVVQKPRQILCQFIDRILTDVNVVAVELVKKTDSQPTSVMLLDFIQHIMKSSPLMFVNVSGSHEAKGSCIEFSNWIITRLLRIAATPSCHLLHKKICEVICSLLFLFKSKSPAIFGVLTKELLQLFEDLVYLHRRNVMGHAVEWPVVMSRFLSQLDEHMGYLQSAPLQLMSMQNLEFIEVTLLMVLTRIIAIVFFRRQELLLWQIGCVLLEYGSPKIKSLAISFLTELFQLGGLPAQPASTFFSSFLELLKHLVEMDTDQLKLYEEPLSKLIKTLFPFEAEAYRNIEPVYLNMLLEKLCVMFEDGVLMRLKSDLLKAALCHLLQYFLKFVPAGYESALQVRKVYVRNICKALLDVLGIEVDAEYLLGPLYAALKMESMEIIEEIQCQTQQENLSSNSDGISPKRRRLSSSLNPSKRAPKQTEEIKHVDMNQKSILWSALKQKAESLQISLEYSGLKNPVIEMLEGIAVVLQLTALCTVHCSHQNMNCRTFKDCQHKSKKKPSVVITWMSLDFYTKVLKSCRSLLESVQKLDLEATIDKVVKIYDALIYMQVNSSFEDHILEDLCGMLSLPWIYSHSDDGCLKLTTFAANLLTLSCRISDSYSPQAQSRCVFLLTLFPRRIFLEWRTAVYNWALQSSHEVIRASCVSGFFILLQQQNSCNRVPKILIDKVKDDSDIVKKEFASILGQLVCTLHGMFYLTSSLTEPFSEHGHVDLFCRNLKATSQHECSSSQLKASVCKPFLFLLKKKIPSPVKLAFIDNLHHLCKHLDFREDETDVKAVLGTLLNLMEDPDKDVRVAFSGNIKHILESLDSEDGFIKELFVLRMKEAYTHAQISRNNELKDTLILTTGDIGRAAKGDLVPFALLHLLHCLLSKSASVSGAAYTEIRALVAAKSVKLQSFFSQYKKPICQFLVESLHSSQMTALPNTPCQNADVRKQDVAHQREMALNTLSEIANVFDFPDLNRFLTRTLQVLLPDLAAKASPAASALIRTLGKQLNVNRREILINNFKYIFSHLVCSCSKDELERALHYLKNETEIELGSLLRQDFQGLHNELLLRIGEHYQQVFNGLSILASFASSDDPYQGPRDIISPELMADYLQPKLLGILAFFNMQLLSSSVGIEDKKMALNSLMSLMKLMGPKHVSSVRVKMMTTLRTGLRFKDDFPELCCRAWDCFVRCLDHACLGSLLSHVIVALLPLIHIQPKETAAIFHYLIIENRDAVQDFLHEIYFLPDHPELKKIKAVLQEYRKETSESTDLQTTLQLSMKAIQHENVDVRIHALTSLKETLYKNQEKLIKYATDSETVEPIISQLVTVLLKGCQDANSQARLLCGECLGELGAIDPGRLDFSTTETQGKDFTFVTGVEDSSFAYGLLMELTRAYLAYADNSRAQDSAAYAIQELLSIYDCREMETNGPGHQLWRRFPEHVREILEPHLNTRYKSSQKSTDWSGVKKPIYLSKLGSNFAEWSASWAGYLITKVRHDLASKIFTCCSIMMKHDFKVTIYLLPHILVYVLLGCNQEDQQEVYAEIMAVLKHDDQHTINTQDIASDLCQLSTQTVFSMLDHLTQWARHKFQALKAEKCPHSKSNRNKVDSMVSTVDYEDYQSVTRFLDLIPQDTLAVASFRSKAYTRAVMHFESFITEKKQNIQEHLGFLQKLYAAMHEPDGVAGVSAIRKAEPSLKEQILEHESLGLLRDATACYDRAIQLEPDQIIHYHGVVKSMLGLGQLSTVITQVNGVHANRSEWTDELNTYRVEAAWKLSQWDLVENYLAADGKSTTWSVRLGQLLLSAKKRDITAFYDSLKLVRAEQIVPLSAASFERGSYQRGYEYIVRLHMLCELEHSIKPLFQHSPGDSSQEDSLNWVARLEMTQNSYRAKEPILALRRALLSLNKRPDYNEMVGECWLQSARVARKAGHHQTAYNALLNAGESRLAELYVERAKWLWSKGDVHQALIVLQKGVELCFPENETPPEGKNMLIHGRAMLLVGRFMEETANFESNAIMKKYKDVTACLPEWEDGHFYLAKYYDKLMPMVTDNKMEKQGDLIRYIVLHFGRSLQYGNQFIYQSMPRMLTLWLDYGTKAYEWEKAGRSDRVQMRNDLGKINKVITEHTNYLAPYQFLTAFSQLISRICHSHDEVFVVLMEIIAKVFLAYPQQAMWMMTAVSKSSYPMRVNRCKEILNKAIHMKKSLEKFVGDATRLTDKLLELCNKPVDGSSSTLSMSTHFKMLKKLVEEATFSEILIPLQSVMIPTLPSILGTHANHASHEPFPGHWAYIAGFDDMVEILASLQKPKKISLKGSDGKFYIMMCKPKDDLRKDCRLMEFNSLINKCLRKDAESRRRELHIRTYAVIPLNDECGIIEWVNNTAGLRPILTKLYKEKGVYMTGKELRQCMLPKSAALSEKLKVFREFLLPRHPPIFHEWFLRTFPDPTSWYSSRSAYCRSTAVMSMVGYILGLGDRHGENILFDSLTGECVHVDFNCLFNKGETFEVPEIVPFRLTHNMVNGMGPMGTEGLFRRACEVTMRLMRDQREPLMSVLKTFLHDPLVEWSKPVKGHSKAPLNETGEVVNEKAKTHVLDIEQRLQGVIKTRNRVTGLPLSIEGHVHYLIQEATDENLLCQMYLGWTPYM
T2 sequence (Q8WXE1 whole entry partner): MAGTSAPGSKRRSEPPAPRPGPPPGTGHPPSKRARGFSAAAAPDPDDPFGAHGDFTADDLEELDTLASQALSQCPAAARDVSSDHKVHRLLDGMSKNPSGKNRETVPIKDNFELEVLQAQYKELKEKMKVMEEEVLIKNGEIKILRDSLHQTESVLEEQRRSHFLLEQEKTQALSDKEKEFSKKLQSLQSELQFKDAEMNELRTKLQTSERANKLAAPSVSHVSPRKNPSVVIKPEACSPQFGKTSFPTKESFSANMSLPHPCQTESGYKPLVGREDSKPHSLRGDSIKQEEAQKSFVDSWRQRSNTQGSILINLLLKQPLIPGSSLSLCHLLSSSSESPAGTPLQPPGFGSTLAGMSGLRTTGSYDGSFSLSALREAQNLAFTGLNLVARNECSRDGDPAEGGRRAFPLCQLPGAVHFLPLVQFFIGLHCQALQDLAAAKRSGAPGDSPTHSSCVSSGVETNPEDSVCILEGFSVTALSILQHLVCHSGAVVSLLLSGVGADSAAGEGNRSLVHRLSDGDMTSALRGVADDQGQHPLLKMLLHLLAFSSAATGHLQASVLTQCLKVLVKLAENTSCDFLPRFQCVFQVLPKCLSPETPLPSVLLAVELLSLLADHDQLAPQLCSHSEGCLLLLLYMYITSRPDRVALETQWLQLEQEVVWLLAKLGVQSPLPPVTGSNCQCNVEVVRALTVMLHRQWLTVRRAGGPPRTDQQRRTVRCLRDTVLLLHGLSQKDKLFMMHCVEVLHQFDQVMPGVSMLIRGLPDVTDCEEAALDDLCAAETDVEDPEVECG
Experimental: Compounds can be screened for their ability to inhibit intracellular ATR using an immunofluorescence microscopy assay to detect phosphorylation of the ATR substrate histone H2AX in hydroxyurea treated cells. HT29 cells are plated at 14,000 cells per well in 96-well black imaging plates (BD 353219) in McCoy's 5A media (Sigma M8403) supplemented with 10% foetal bovine serum (JRH Biosciences 12003), Penicillin/Streptomycin solution diluted 1:100 (Sigma P7539), and 2 mM L-glumtamine (Sigma G7513), and allowed to adhere overnight at 37° C. in 5% CO2. Compounds are then added to the cell media from a final concentration of 25 μM in 3-fold serial dilutions and the cells are incubated at 37° C. in 5% CO2. […]
Cells are imaged for Alexa Fluor 488 and Hoechst intensity using the BD Pathway 855 Bioimager and Attovision software (BD Biosciences, Version 1.6/855) to quantify phosphorylated H2AX Ser139 and DNA staining, respectively. The percentage of phosphorylated H2AX-positive nuclei in a montage of 9 images at 20× magnification is then calculated for each well using BD Image Data Explorer software (BD Biosciences Version 2.2.15). […] The percentage of H2AX positive nuclei is finally plotted against concentration for each compound and IC50s for intracellular ATR inhibition are determined using Prism software (GraphPad Prism version 3.0cx for Macintosh, GraphPad Software, San Diego Calif., USA).

T1 sequence (Q13535 whole entry): as the sequence (Q13535 whole entry) above

CC(C)S(=O)(=O)c1ccc(-c2cnc(N)c(-c3cc(-c4ccc(CNCC5COC5)cc4)no3)n2)cc1 [I, 5-(4-(isopropylsulfonyl)phenyl)-3-(3-(4-((oxetan-3-ylmethylamino)methyl)phenyl)isoxazol-5-yl)pyrazin-2-amine]
Ki (full-length ATR): 0.21 nM | Cisplatin sensitization [1]: 39 nM | clearance ([2]; blood or plasma samples): 6 mL/min/kg | Vd ([2]; steady state volume of distribution, read-out: Vss): 0.9 L/kg | IC50 [3]: 62 nM | IC50 (intracellular ATR): 16 nM

Reference: patent publication US8853217B2, “Compounds useful as inhibitors of ATR kinase” (Vertex Pharmaceuticals Incorporated, priority 2011, dated 2014)
